Laboratory results published in US20090029955A1, “Pyridothienopyrimidine Derivatives” (priority 2004, published 2009).

Test system: PDE4
Assay: PDE4 Assay Procedure ([3H]-cAMP SPA)
Format: biochemical
Conditions: 15 nM [3H]-cAMP, 1 hour at room temperature, SPA beads; compounds tested from 10 μM to 10 pM

Row | Structure (SMILES) | IC50 [nM]
1 | CC1(C)CCc2c(N3CCCC3)nc3sc4c(NCCN5CCOCC5)ncnc4c3c2C1 [Example 23, 2,2-Dimethyl-N-(2-morpholin-4-ylethyl)-5-pyrrolidin-1-yl-1,2,3,4-tetrahydropyrimido[4′,5′:4,5]thieno[2,3-c]isoquinolin-8-amine] | 8.1
2 | CC1(C)CCc2c(N3CCCC3)nc3sc4c(NCc5cccnc5)ncnc4c3c2C1 [Example 25] | 1.5
3 | CCN(C)c1nc2sc3c(NCC(=O)NCC4CCCO4)ncnc3c2c2c1CCC(C)(C)C2 (stereo not drawn) [Example 54, N^2-{5-[Ethyl(methyl)amino]-2,2-dimethyl-1,2,3,4-tetrahydropyrimido[4′,5′:4,5]thieno[2,3-c]isoquinolin-8-yl}-N^1-(tetrahydrofuran-2-ylmethyl)glycinamide] | 10
4 | CC(C)Cc1nc2sc3c(NCCCN4CCCC4=O)ncnc3c2c2c1CCC(C)(C)C2 [Example 60, 1-{3-[(5-Isobutyl-2,2-dimethyl-1,2,3,4-tetrahydropyrimido[4′,5′:4,5]thieno[2,3-c]isoquinolin-8-yl)amino]propyl}pyrrolidin-2-one] | 4.8
5 | CC1(C)CCc2c(-c3ccco3)nc3sc4c(NCCN5CCOCC5)ncnc4c3c2C1 [Example 62, 5-(2-Furyl)-2,2-dimethyl-N-(2-morpholin-4-ylethyl)-1,2,3,4-tetrahydropyrimido[4′,5′:4,5]thieno[2,3-c]isoquinolin-8-amine] | 3.8
6 | CN(C)c1nc2sc3c(NCc4cccnc4)ncnc3c2c2c1CC(C)(C)C2 [Example 79, N^4,N^4,2,2-Tetramethyl-N-(pyridin-3-ylmethyl)-2,3-dihydro-1H-cyclopenta[4′,5′]pyrido[3′,2′:4,5]thieno[3,2-d]pyrimidin-4,7-diamine] | 4.6

Continued by falling IC50, values first:

Row | IC50 [nM] | Structure (SMILES)
7 | 14 | CC1(C)CCc2c(N3CCCC3)nc3sc4c(NCc5ccncc5)ncnc4c3c2C1 [Example 24, 2,2-Dimethyl-N-(pyridin-4-ylmethyl)-5-pyrrolidin-1-yl-1,2,3,4-tetrahydropyrimido[4′,5′:4,5]thieno[2,3-c]isoquinolin-8-amine]
8 | 7.9 | CCOC(=O)N1CCN(CCNc2ncnc3c2sc2nc(N(C)C)c4c(c23)CC(C)(C)CC4)CC1 [Example 43, Ethyl 4-(2-{[5-(dimethylamino)-2,2-dimethyl-1,2,3,4-tetrahydropyrimido[4′,5′:4,5]thieno[2,3-c]isoquinolin-8-yl]amino}ethyl)piperazine-1-carboxylate]
9 | 3 | CC1(C)CCc2c(N3CCSCC3)nc3sc4c(NCc5ccccn5)ncnc4c3c2C1 [Example 16, 2,2-Dimethyl-N-(pyridin-2-ylmethyl)-5-thiomorpholin-4-yl-1,2,3,4-tetrahydropyrimido[4′,5′:4,5]thieno[2,3-c]isoquinolin-8-amine]
